The record followed here is patent US10906916B2, “Thienopyrimidinones as ubiquitin-specific protease 7 inhibitors” (Valo Early Discovery, Inc., priority 2015, dated 2021).

In the assay the target is T1, USP7 (construct USP7 (208-1102) 6*His) (Homo sapiens, UniProt Q93009).
T1 construct: USP7, construct USP7 (208-1102) 6*His, Viva Biotech; 6xHis; purchased Viva Biotech
T1 sequence (Q93009 208-1102): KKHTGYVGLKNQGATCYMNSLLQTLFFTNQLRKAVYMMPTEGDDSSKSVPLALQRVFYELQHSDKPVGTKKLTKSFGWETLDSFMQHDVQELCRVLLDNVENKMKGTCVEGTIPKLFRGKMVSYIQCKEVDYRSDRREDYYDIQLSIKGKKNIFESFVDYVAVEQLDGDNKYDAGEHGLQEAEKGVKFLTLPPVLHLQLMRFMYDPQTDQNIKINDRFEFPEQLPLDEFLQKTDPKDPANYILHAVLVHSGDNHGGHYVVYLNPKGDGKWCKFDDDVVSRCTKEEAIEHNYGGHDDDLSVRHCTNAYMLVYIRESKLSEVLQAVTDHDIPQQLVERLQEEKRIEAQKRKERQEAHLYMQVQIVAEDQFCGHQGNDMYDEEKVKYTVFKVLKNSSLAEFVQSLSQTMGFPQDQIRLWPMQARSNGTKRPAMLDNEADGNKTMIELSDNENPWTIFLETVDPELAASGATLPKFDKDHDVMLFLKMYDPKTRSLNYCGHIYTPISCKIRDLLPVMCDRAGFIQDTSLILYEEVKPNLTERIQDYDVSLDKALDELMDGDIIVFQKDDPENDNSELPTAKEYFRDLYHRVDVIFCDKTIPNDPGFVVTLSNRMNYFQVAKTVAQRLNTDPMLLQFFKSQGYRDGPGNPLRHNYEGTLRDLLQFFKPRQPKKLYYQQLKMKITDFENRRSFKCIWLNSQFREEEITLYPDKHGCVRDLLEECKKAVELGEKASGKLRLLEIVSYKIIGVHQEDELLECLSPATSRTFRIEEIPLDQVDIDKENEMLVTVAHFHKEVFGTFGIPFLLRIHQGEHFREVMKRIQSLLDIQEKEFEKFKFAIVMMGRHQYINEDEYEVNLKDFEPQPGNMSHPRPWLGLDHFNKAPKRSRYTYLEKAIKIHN
As to the kind of experiment: USP7 Assay (Ubiquitin-Rhodamine110 Assay). The assay is classed as biochemical. The note with it: Ub-Rh110 substrate 25 nM, enzyme 62.5 pM, 30 min preincubation; read-out: USP7_IC50. As to the method:
Each assay was performed in a final volume of 15 μL in assay buffer containing 20 mM Tris-HCl (pH 8.0, (1M Tris-HCl, pH 8.0 solution; Corning 46-031-CM)), 1 mM GSH (L-Glutathione reduced; Sigma #G4251), 0.03% BGG (0.22 μM filtered, Sigma, #G7516-25G), and 0.01% Triton X-100 (Sigma, #T9284-10L). Nanoliter quantities of either an 8-point or 10-point, 3-fold serial dilution in DMSO was pre-dispensed into assay plates (Perkin Elmer, ProxiPlate-384 F Plus, #6008269) for a final test concentration range of either 25 μM to 11 nM or 25 μM to 1.3 nM, respectively. The final concentration of the enzyme (USP7, construct USP7 (208-1102) 6*His, Viva Biotech) in the assay was 62.5 pM. Final substrate (Ub-Rh110; Ubiquitin-Rhodamine 110, R&D Systems #U-555) concentration was 25 nM with [Ub-Rh110]<<Km. 5 μL of 2× enzyme was added to assay plates (pre-stamped with compound) preincubated with USP7 for 30 min and then 5 μL of 2× Ub-Rh110 was added to assay plates. Plates were incubated stacked for 20 min at room temperature before addition of 5 μL, of stop solution (final concentration of 1.0 mM citric acid in assay buffer (Sigma, #251275-500G)). Fluorescence was read on the Envision (Excitation at 485 nm and Emission at 535 nm; Perkin Elmer) or on the PheraSTAR (Excitation at 485 nm and Emission at 535 nm; BMG Labtech).
Data from USP7 Assay was reported as percent inhibition (inh) compared with control wells based on the following equation: % inh=1−((FLU−AveLow)/(AveHigh−AveLow)) where FLU=measured Fluorescence; AveLow=average Fluorescence of no enzyme control (n=16); and AveHigh=average Fluorescence of DMSO control (n=16). IC50 values were determined by curve fitting of the standard 4 parameter logistic fitting algorithm included in the Activity Base software package: IDBS XE Designer Model205. Data is fitted using the Levenburg Marquardt algorithm.
For `CN(C)C/C=C/C(=O)NCCCCC(=O)N1CCC(O)(Cn2cnc3c(-c4ccc(F)cc4)csc3c2=O)CC1` [Compound I-11, (E)-4-(dimethylamino)-N-(5-(4-((7-(4-fluorophenyl)-4-oxothieno[3,2-d]pyrimidin-3(4H)-yl)methyl)-4-hydroxypiperidin-1-yl)-5-oxopentyl)but-2-enamide], the IC50 was 1 to 10 µM.

As to `CN(C)C/C=C/C(=O)NCCCC(=O)N1CCC(O)(Cn2cnc3c(-c4ccc(F)cc4)csc3c2=O)CC1` [Compound I-12, (E)-4-(dimethylamino)-N-(4-(4-((7-(4-fluorophenyl)-4-oxothieno[3,2-d]pyrimidin-3(4H)-yl)methyl)-4-hydroxypiperidin-1-yl)-4-oxobutyl)but-2-enamide], the IC50 is 1 to 10 µM.

As to `CCc1cc2c(=O)n(CC3(O)CCN(C(=O)CC(C)c4ccccc4)CC3)cnc2s1` (stereo not drawn) [Compound I-7, 6-ethyl-3-((4-hydroxy-1-(3-phenylbutanoyl)piperidin-4-yl)methyl)thieno[2,3-d]pyrimidin-4(3H)-one], the IC50 was less than 0.3 µM.

With `Cc1sc2ncn(CC3(O)CCN(C(=O)CC(C)c4ccccc4)CC3)c(=O)c2c1C` (stereo not drawn) [Compound I-8, 3-((4-hydroxy-1-(3-phenylbutanoyl)piperidin-4-yl)methyl)-5,6-dimethylthieno[2,3-d]pyrimidin-4(3H)-one], the IC50 is more than 10 µM.

For `CCC(CC(=O)N1CCC(O)(Cn2cnc3sccc3c2=O)CC1)c1ccccc1` (stereo not drawn) [Compound I-5, 3-((4-hydroxy-1-(3-phenylpentanoyl)piperidin-4-yl)methyl)thieno[2,3-d]pyrimidin-4(3H)-one], the IC50 was 1 to 10 µM.

Turning to `CC(CC(=O)N1CCC(O)(Cn2cnc3sc4c(c3c2=O)CCC4)CC1)c1ccccc1` (stereo not drawn) [Compound I-3, 3-((4-hydroxy-1-(3-phenylbutanoyl)piperidin-4-yl)methyl)-3,5,6,7-tetrahydro-4H-cyclopenta[4,5]thieno[2,3-d]pyrimidin-4-one], the IC50 is 1 to 10 µM.

Take `CCCc1cc2c(=O)n(CC3(O)CCN(C(=O)CC(C)c4ccccc4)CC3)cnc2s1` (stereo not drawn) [Compound I-4, 3-((4-hydroxy-1-(3-phenylbutanoyl)piperidin-4-yl)methyl)-6-propylthieno[2,3-d]pyrimidin-4(3H)-one]: the IC50 was 0.3 to 1 µM.

As to `COc1ccc(C(=O)N2CCC(O)(Cn3cnc4c(-c5ccc(F)cc5)csc4c3=O)CC2)cc1` [Compound I-9, 7-(4-fluorophenyl)-3-((4-hydroxy-1-(4-methoxybenzoyl)piperidin-4-yl)methyl)thieno[3,2-d]pyrimidin-4(3H)-one], the IC50 fell in the range of 1 to 10 µM.

In the case of `CC(CC(=O)N1CCC(O)(Cn2cnc3sccc3c2=O)CC1)c1ccccc1` (stereo not drawn) [Compound I-1, 3-((4-hydroxy-1-(3-phenylbutanoyl)piperidin-4-yl)methyl)thieno[2,3-d]pyrimidin-4(3H)-one], the IC50 lay within 0.3 to 1 µM.

On to `Cc1cc2c(=O)n(CC3(O)CCN(C(=O)CC(C)c4ccccc4)CC3)cnc2s1` (stereo not drawn) [Compound I-6, 3-((4-hydroxy-1-(3-phenylbutanoyl)piperidin-4-yl)methyl)-6-methylthieno[2,3-d]pyrimidin-4(3H)-one], for which the IC50 is less than 0.3 µM.

As for `CC(CC(=O)N1CCC(O)(Cn2cnc3sc4c(c3c2=O)CCCC4)CC1)c1ccccc1` (stereo not drawn) [Compound I-2, 3-((4-hydroxy-1-(3-phenylbutanoyl)piperidin-4-yl)methyl)-5,6,7,8-tetrahydrobenzo[4,5]thieno[2,3-d]pyrimidin-4(3H)-one], the IC50 is more than 10 µM.

Regarding `O=C(c1ccccc1)N1CCC(O)(Cn2cnc3c(-c4ccc(F)cc4)csc3c2=O)CC1` [Compound I-10, 3-((1-benzoyl-4-hydroxypiperidin-4-yl)methyl)-7-(4-fluorophenyl)thieno[3,2-d]pyrimidin-4(3H)-one], the IC50 was in the range of 1 to 10 µM.
